# Active and inactive are the calls of the source.
# Tests used:
# [1] = inhibitors of intracellular T. cruzi replication, confirmation, NIH3T3 host cells, beta-gal luminescence (AID 2044); format: functional, cell-based;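 also: intracellular parasites grown in NIH/3T3 mouse fibroblasts as host cells; luminescent beta-galactosidase reporter signal from transgenic T. cruzi replicating inside host cells; inhibitors lower the luminescence signal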
# [2] = cytotoxicity toward NIH3T3 fibroblasts, dose response, counter-screen, cell-based, ATP luminescence, mouse fibroblasts (AID 2010); format: functional;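 also: cells exposed to compound for about 90 hours before reading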
# [3] = molecular target: T1, Heat shock factor protein 1 (Mus musculus, UniProt P38532); assay: HSF1 potentiators in luciferase reporter cells, confirmation, cell-based, NIH3T3, luminescence, dose retest (AID 435004); format: functional;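 also: stress induced by proteasome inhibitor MG132 added 30 min after compound; luciferase reporter driven by HSF1 response element in NIH3T3 cells; actives raise luminescence as potentiators of the MG132 stress response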
# T1 sequence (P38532 whole entry): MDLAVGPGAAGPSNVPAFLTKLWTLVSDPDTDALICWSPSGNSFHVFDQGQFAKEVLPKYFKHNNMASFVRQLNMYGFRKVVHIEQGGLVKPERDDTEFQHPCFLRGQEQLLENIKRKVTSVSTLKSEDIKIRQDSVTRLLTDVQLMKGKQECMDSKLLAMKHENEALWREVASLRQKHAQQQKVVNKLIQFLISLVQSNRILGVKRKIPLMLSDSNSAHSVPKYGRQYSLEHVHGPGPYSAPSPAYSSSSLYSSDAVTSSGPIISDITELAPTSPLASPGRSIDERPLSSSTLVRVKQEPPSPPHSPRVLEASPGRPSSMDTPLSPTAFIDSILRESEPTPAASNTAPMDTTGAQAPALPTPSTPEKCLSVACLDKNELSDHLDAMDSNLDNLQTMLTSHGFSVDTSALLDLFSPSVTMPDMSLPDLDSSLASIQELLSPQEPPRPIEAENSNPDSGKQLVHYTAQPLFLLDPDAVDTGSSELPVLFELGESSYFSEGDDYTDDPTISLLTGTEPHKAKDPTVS
# [4] = molecular target: T2, Zinc finger protein mex-5 (Caenorhabditis elegans, UniProt Q9XUB2); assay: MEX-5/TCR-2 RNA interaction inhibitors, dose response, biochemical, C. elegans, fluorescence polarization (AID 1960)
# T2 sequence (Q9XUB2 whole entry): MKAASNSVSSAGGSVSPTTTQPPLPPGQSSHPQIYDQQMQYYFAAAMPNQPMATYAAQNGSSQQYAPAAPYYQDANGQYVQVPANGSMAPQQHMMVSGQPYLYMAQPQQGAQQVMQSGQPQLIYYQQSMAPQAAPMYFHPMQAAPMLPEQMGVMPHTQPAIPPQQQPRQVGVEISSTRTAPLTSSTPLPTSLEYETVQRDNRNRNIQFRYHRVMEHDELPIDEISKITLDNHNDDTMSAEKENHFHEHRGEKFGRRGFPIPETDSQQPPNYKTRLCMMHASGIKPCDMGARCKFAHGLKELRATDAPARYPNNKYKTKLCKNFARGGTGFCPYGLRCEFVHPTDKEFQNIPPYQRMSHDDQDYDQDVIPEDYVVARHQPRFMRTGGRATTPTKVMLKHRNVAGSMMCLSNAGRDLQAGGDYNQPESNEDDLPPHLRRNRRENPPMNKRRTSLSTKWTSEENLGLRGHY
# [5] = molecular target: T3, RNA-binding protein pos-1 (Caenorhabditis elegans, UniProt G5EF15); assay: inhibitors of POS-1/mex-3 RNA binding, dose response, biochemical, fluorescence polarization (AID 1964);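 also: purified POS-1 fused to maltose binding protein made in E. coli; potency of compounds blocking POS-1 binding to fluorescent RNA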
# T3 sequence (G5EF15 whole entry): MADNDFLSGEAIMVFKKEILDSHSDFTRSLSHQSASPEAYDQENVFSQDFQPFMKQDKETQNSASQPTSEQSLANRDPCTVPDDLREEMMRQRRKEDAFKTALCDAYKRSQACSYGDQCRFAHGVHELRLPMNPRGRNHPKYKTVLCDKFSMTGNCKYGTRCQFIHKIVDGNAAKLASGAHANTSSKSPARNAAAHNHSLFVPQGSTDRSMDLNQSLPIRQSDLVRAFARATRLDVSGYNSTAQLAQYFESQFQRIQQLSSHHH
# Cytochrome P450 2C19 = Cytochrome P450 2C19 (Homo sapiens, UniProt P33261); assay: Cytochrome panel assay with activity outcomes. Panel member name: p450-cyp2c19 Compounds with AC50 equal or less than 10 uM are considered active; format: functional
# Sequence of Cytochrome P450 2C19 (P33261 whole entry): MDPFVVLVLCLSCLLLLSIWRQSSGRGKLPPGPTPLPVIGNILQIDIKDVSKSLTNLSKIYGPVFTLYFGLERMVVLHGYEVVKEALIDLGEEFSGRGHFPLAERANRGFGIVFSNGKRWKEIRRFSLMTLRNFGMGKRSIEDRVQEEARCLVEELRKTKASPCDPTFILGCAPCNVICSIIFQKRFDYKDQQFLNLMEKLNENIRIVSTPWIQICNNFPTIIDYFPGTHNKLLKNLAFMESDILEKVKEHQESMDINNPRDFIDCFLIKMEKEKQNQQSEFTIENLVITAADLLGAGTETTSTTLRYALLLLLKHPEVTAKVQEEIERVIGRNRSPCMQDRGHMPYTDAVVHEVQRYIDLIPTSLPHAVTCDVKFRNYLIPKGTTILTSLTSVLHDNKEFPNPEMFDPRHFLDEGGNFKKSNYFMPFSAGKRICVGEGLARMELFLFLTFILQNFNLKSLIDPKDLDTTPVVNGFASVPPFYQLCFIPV
# [6] = molecular target: T4, Corticotropin-releasing factor receptor 2/Corticotropin-releasing factor-binding protein (Homo sapiens, UniProt P24387+Q13324); assay: activators of CRF receptor 2 with binding protein – uHTS hits, confirmation (AID 602473); format: functional; conditions: read-out: EC50_Mean
# T4 sequence (Q13324 whole entry): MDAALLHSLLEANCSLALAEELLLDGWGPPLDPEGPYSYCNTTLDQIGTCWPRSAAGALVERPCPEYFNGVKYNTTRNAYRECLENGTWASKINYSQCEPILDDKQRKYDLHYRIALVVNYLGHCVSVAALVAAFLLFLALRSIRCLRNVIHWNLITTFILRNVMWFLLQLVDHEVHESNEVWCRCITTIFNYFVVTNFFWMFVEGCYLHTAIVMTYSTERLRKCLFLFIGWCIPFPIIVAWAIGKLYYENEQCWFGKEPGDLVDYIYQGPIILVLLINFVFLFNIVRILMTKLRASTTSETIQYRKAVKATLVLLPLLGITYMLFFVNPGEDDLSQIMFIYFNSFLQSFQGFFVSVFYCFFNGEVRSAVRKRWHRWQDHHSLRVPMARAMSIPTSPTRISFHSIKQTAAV
# T4 sequence (P24387 whole entry): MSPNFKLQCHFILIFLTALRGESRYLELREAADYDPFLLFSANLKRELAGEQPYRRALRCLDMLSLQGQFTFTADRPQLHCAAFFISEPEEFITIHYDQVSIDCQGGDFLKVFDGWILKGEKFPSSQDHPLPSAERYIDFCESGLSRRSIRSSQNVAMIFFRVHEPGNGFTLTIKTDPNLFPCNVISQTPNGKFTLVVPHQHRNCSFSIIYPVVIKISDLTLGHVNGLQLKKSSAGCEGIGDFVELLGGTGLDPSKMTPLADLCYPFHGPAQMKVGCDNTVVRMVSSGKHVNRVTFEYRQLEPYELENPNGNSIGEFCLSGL
# Streptococcus = assay: Group A Streptococcus viability loss, dose response, counter-screen for streptokinase expression inhibitor project, luminescence, BacTiterGlo (AID 1915); format: functional, organism-based;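 also: potency for reduction of bacterial viability or growth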
# [7] = system: Streptococcus sp. 'group A'; assay: growth inhibition of control SK(-) GAS strain, dose response, counter-screen for streptokinase expression inhibitor project, luminescence, kanamycin, BacTiterGlo, confirmation (AID 1900); format: functional, organism-based
# Cytochrome P450 3A4 = Cytochrome P450 3A4 (Homo sapiens, UniProt P08684);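 also: CYP3A4 tested as one member of a cytochrome P450 panel screen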
# Sequence of Cytochrome P450 3A4 (P08684 whole entry): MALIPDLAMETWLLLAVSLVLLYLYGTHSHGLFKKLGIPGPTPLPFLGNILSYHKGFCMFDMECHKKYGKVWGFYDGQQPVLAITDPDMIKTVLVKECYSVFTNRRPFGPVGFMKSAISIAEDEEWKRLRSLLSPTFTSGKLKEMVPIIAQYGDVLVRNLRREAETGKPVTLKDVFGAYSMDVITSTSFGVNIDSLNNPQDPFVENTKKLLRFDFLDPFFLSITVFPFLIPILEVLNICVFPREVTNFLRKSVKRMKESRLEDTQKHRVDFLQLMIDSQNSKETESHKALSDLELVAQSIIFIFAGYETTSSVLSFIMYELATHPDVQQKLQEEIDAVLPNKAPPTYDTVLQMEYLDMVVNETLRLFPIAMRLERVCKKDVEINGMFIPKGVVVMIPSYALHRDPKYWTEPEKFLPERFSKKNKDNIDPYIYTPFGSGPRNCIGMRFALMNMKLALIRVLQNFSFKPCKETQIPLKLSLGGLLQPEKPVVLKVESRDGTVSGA
smiles,measurement,setting,value
O=C(CN1CCN(c2cccc(Cl)c2)CC1)Nc1ccc([N+](=O)[O-])cc1C(=O)Nc1ccccc1F,EC50,[1],1.01 µM (active)
same,EC50,[2],> 60 µM (not active)
CC(C)(C)NC(=O)c1ccc2c(c1)N(CC(=O)N1CCCCC1)C(=O)C(C)(C)O2,EC50,[3],> 260 µM (inactive)
O=C(NC1C2CC3CC(C2)CC1C3)C1CC1 (configuration not stated),EC50,[3],> 260 µM (inactive)
CC(C)COc1ccc(/C=C2/Sc3ccccc3C2=O)cc1,EC50,[4],> 300 µM (not active)
same,EC50,[5],> 300 µM (not active)
Cc1cc(C)cc(N2C(=O)NC(=O)/C(=C\c3cc(C)n(C)c3C)C2=O)c1,EC50,[4],23.5 µM (active)
same,EC50,[5],6.75 µM (active)
CC1(OC(=O)CCc2ccccc2)C(=O)C=C2C=C(C3CC3)OC=C2C1=O (configuration not stated),EC50,[4],30.4 µM (active)
same,EC50,[5],36.6 µM (active)
Cn1c(CN2CCCC2)nc2cc(NC(=O)C3CCCCC3)ccc21,AC50,Cytochrome P450 2C19,inconclusive
O=C(NC1CCCC1)C(c1ccncc1)N(Cc1ccccc1)C(=O)c1ccc(-c2ccccc2)[nH]1 (configuration not stated),EC50,[1],0.253 µM (active)
same,EC50,[2],> 60 µM (not active)
Oc1nc2cc3c(cc2cc1C(c1nnnn1C1CCCC1)N1CCCc2ccccc21)OCCO3 (configuration not stated),EC50,[6],> 53 µM (inactive)
Clc1ccc(CCNc2nc3ccccc3n3nnnc23)cc1,EC50,[3],> 260 µM (inactive)
Cc1nc(NCCc2c[nH]cn2)c2oc3ccccc3c2n1,EC50,[1],0.305 µM (active)
same,EC50,[2],> 60 µM (not active)
CCCC(Oc1ccc(Br)cc1)c1nc2c3cc(OC)c(OC)cc3nc(S)n2n1 (configuration not stated),EC50,Streptococcus,3.62 µM (active)
same,EC50,[7],0.253 µM (active)
O=C(/C=C/c1ccc(Cl)cc1Cl)N(Cc1ccccc1)C1CCS(=O)(=O)C1 (configuration not stated),EC50,[3],> 260 µM (inactive)
O=S(=O)([N-]c1nc2ccccc2nc1-[n+]1ccc(CCCc2ccccc2)cc1)c1cccs1,EC50,[4],34 µM (active)
same,EC50,[5],35.4 µM (active)
COC(=O)CCN(C(=O)c1cc([N+](=O)[O-])cc([N+](=O)[O-])c1)c1ccccn1,EC50,[1],1.38 µM (active)
same,EC50,[2],> 30 µM (not active)
CC1=CC(C)(C)N(C(=O)CSc2nnc(N)s2)c2ccccc21,EC50,[6],> 53 µM (inactive)
CCCCc1nnc(NC(=O)C(C)Sc2nc(C)cc(O)n2)s1 (configuration not stated),EC50,[3],> 260 µM (inactive)
Cc1ccccc1NC(=O)C1CCCN(C(=O)NCc2ccccc2)C1 (configuration not stated),EC50,[3],> 260 µM (inactive)
CCOC(=O)C1CCCN(C2CCN(Cc3nc(-c4ccccc4)no3)CC2)C1 (configuration not stated),EC50,[1],0.524 µM (active)
same,EC50,[2],> 60 µM (not active)
CCSC1=N/C(=C\c2ccccc2)C(=O)N1,EC50,[4],> 300 µM (not active)
same,EC50,[5],> 300 µM (not active)
O=C1C2ON(c3ccccc3)C(c3ccncc3)C2C(=O)N1c1ccccc1 (configuration not stated),AC50,Cytochrome P450 2C19; read-out: AC50,0.0708 µM (inconclusive)
Cc1ccc(OCCOCCN2CCCC2)c(Br)c1,EC50,[1],0.96 µM (active)
same,EC50,[2],> 30 µM (not active)
Cc1cnc(CNc2ncncc2-c2ccccc2C#N)cn1,AC50,Cytochrome P450 3A4,12.6 µM (inconclusive)
CN1CCN(NC(=O)/C=C/c2ccc(Br)cc2)CC1,EC50,[3],32.3 µM (active)
Cc1cc(/C=C2\C(=O)NC(=O)N(c3ccc(F)cc3)C2=O)c(C)n1-c1cccc(C(=O)O)c1,EC50,[4],> 300 µM (not active)
same,EC50,[5],> 300 µM (not active)
COc1ccc(S(=O)(=O)N(C)CC(=O)N2CCC(C(N)=O)CC2)cc1Cl,EC50,[3],> 260 µM (inactive)
O=C(CCN1C(=O)c2ccccc2C1=O)C1=NN[C@@H]2C(=O)N(c3ccc(F)cc3)C(=O)[C@H]12,EC50,[3],> 260 µM (inactive)
Cc1cccc(NC(=O)C(C)N2C(=O)C3C4CC(C(Br)C4Br)C3C2=O)c1 (configuration not stated),EC50,[6],9.65 µM (active)
COc1ccc(-c2nn(-c3ccccc3)cc2CNC(=O)c2cccc([N+](=O)[O-])c2)cc1,EC50,[1],1.75 µM (active)
same,EC50,[2],> 60 µM (not active)
Cc1ccsc1C(=O)C1CCCN(Cc2cnc(N(C)C)s2)C1 (configuration not stated),EC50,[1],0.203 µM (active)
same,EC50,[2],> 60 µM (not active)
COc1cc2oc3ccc(C#Cc4ccc(N)cc4)cc3c(=O)c2cc1OC,EC50,Streptococcus,1.75 µM (active)
same,EC50,[7],1.18 µM (active)
Cc1ccnc(SCC(=O)c2ccc(Br)cc2)c1C#N,EC50,[1],0.932 µM (active)
same,EC50,[2],> 30 µM (not active)
N#Cc1cc(NC(=O)c2ccc(F)cc2)c(O)n2c1nc1ccccc12,EC50,[4],35 µM (active)
same,EC50,[5],21.7 µM (inconclusive)
Cc1cc(C)cc(NC(=O)CN(C)S(=O)(=O)c2c[nH]cn2)c1,EC50,[3],> 260 µM (inactive)
COCCN1Cc2cccc(C(=O)Nc3cc(OC)ccc3OC)c2C1=O,EC50,[6],> 53 µM (inactive)
S=C1NC2(CCS1)Oc1ccccc1C1CC(c3ccccc3)=NN12 (configuration not stated),EC50,[4],> 300 µM (not active)
same,EC50,[5],> 300 µM (not active)
CN(C)c1ncc2nc(-c3ccccc3)c(=O)n(C3CC3)c2n1,AC50,Cytochrome P450 2C19; read-out: AC50,39.8 µM (inconclusive)
CCN(Cc1ccccc1)S(=O)(=O)c1cc(C(=O)NCC2CCCCC2)ccc1OC,EC50,[3],> 260 µM (inactive)
COC(=O)c1cc(OC)c(OC)cc1N=C(S)N1CCCC1,EC50,[3],> 260 µM (inactive)
COc1ccc(NC(=O)C2CC(=O)N=C(Nc3cccc(C)c3)N2)cc1 (configuration not stated),EC50,[3],> 260 µM (inactive)
CCCCOC(=O)CCc1c(C)n[nH]c1C,EC50,[3],> 260 µM (inactive)
O=C(NNc1cccc(Cl)n1)Nc1ccccc1Cl,AC50,Cytochrome P450 2C19; read-out: AC50,6.31 µM (inconclusive)
CCCc1nnc(SCC(=O)N2CCCCC2C)n1CC1CCCO1 (configuration not stated),AC50,Cytochrome P450 2C19; read-out: AC50,25.1 µM (inconclusive)
COc1ccc(/C=N/N=C2/CC(C)(C)Cc3nnc(O)cc32)cc1,EC50,[4],38.1 µM (active)
same,EC50,[5],41.4 µM (active)
COc1ccc2cc(/C(C)=N/NC(=S)Nc3cc(S(=O)(=O)N4CCOCC4)ccc3N3CCOCC3)ccc2c1,EC50,[1],0.572 µM (active)
same,EC50,[2],> 60 µM (not active)
COc1ccc(C2C(C#N)=C(/N=C/N3CCN(C)CC3)OC3=C2C(=O)CC(C)(C)C3)cc1 (configuration not stated),EC50,[4],> 300 µM (not active)
same,EC50,[5],> 300 µM (not active)
CN1CCN(C2=Cc3ccccc3Oc3ccc(Cl)cc32)CC1,AC50,Cytochrome P450 3A4,31.6 µM (inconclusive)
CC1(C)S[C@@H]2[C@H](NC(=O)Cc3ccccc3)C(=O)N2[C@H]1C(=O)O [PENICILLIN G],EC50,Streptococcus,< 0.06 µM (active)
same,EC50,[7],< 0.06 µM (active)
CNNCc1ccc(C(=O)NC(C)C)cc1 [PROCARBAZINE],AC50,Cytochrome P450 2C19; read-out: AC50,5.01 µM (inconclusive)

# Reference: ChEMBL document CHEMBL1201862, “PubChem BioAssay data set” (2004)
